Laboratory results as given in US20160168118A1, “N-(5-QUINOLIN-6-YL)PYRIDIN-3-YL) BENZSULFAMIDE DERIVATIVES, PREPARATION METHOD AND THERAPEUTIC USE THEREOF” (SECOND MILITARY MEDICAL UNIVERSITY, PLA, priority 2012, published 2016).
Converted amounts (≈) assume the structure as drawn. Read-outs that look alike come from different tables or passages of the source.

Columns and labels:
[1] = Solubility test in buffer solution at pH=1; assay type: physicochemical; settings: pH=1 buffer solution, simulated gastric fluid, thermodynamic from solid; buffer solution pH=1
Method: Compound 9 1.02 mg was precisely weighed and placed in 1.5 mL of EP tube, and 10 uL pH=1 buffer solution was added, vortexed for 30S and ultrasonic for 20 min. There was a lot of visible turbidity after that.
20 uL buffer was added and ultrasounded and the solution was found still turbid. Turbidity reduced after the solution was diluted to 1 mL and vortexed, while there still exist residual after diluted to 2 mL.

[2] = biological target: PI3Kβ (Homo sapiens, UniProt P42338); test: ADP-Glo Luminescent Kinase Assay, PI3Kβ; assay type: biochemical; settings: read-out: IC50 on PI3K beta
[3] = In vivo pharmacokinetics in SD rats; settings: for AUC(0-t): read-out: AUC(0-24); for half-life / bioavailability: rat, plasma; for bioavailability: oral, rats, intragastric 20 mg/kg vs iv 2 mg/kg
Method: SD rats, male, 4-6 weeks old, weighing 200-220 g, the total number is 12, were purchased from Shanghai Slac laboratory animal limited liability company, animal production license number: SCXK (Shanghai) 2008-0016, the experimental animals using license number: SCXK (Shanghai) 2007-0005, certificate number: 2007000514232.
SD rats were randomly divided into two groups, numbered A and B, while 6 rats in each group, before the experiment starts, the rats were fasted 12 hours overnight, group A were tail vein injected with compound 9 by dose 2 mg/kg; group B were intragastric administrated with Compound 9 suspensions, of which the dose was calculated as 20 mg/kg;
Group A: tail intravenous injection (i.v.) administrated compound 9. Orbital blood 0.3 mL was taken on 0, 5, 10, 15, 30, 45, 60 min, 2 h, 3 h, 4 h, 6 h, 8 h, 12 h, and was placed in 1.5 mL EP tube coated with heparin, shaked up and down for 3 times, centrifuged at 3500 rpm for 5 min to get supernatant, and was kept in refrigerator at −20° C. to save backup;
Dose was 2 mg/kg (2.6 mL/kg), administered in a concentration of 770 μg/mL, which was dissolved with mixed aqueous solution of 9.4% ethanol and 24.5% isopropanol;
Group B: intragastric administration (i.g.), dose of 20 mg/kg, administered in a concentration of 1.5 mg/mL, and 3.75% Tween 80 was used to dissolve compound 9, gavage dose was (13.3 mL/kg);
Orbital blood 0.5 mL was taken at 0, 5, 10, 15, 30, 45, 60 min, 2 h, 3 h, 4 h, 6 h, 8 h, 12 h, 24 h, and was placed in 1.5 mL EP tube coated with heparin, shaked up and down for 3 times, centrifuged at 3500 rpm for 5 min to get supernatant, and kept in refrigerator at −20° C. to save backup.
Plasma sample 100 μL was precisely measured, put in 1.5 mL plastic centrifuge tube, 10 μL methanol and 190 μL methanol solution of compound 17 (internal standard) of 100.8 ng·mL^−1 were added, vortex mixed for 30 s, centrifuged at 12000r·min^−1 for 10 min, 200 μL supernatant was taken and put into the vial, 5 μL injected for HPLC-MS analysis.
Analytical conditions: column: SHISEIDO MG-C18 (100 mm×3.0 mm, 3.0 μm), mobile phase: acetonitrile: water (containing 0.1% formic acid=25:75 (V/V); flow rate: 0.8 mL·min^−1 analysis time 6 min, column temperature: 25° C., the injection volume: 5 μL, split ratio 2:1. The mass was in ESI source positive ion mode, the capillary voltage was 4000V, drying flow rate was 10 L/min, the atomizing air pressure was 40 psi, temperature of the drying gas was 350° C. Selective ion mode (SIM), the ion of compound 9 was [M+H] ions+m/z 561.2 and that of the internal standard compound 17 [M+H]+m/z 591.2, and the debris voltage was 70 eV.
The data gained were substituted into the accompanying standard curve, thus obtaining the drug concentration in rat plasma.
The pharmacokinetic parameters were analyzed by using non-compartmental model, the peak concentration Cmax and peak time Tmax were taken Found value, and the pharmacokinetic parameters were processed to obtain the pharmacokinetic parameters result of single dose.

[4] = system: MCF7; test: NCI cytotoxicity test, MCF7; assay type: cell-based; settings: Homo sapiens
From the text: (§1) Cytotoxicity Test of Compound 9, 10 and 17 on 60 Kinds of Human Cancer Cell Lines from the US National Cancer Institute

[5] = system: A549; test: NCI cytotoxicity test, A549; assay type: cell-based; settings: Homo sapiens
From the text: as §1

[6] = biological target: PI3Kα (Homo sapiens, UniProt P42336); test: Kinase-Glo Luminescent Kinase Assay, PI3Kα; assay type: biochemical
[7] = system: SF539; test: NCI cytotoxicity test, SF539; assay type: cell-based; settings: Homo sapiens, SF-539
From the text: as §1

[8] = biological target: mTOR (Homo sapiens, UniProt P42345); test: Lance Ultra Assay, mTOR; assay type: biochemical
[9] = biological target: PI3Kγ (Homo sapiens, UniProt P48736); test: ADP-Glo Luminescent Kinase Assay, PI3Kγ; assay type: biochemical; settings: read-out: IC50 on PI3K gamma
[10] = male, SD, iv, rat plasma, tail vein injection, 2 mg/kg
[11] = male, SD, po, rat plasma, intragastric administration, 20 mg/kg
[12] = rat plasma, intragastric administration, 20 mg/kg
[13] = rat plasma, tail vein injection, 2 mg/kg

Chain of PI3Kγ (P48736 whole entry, species assumed): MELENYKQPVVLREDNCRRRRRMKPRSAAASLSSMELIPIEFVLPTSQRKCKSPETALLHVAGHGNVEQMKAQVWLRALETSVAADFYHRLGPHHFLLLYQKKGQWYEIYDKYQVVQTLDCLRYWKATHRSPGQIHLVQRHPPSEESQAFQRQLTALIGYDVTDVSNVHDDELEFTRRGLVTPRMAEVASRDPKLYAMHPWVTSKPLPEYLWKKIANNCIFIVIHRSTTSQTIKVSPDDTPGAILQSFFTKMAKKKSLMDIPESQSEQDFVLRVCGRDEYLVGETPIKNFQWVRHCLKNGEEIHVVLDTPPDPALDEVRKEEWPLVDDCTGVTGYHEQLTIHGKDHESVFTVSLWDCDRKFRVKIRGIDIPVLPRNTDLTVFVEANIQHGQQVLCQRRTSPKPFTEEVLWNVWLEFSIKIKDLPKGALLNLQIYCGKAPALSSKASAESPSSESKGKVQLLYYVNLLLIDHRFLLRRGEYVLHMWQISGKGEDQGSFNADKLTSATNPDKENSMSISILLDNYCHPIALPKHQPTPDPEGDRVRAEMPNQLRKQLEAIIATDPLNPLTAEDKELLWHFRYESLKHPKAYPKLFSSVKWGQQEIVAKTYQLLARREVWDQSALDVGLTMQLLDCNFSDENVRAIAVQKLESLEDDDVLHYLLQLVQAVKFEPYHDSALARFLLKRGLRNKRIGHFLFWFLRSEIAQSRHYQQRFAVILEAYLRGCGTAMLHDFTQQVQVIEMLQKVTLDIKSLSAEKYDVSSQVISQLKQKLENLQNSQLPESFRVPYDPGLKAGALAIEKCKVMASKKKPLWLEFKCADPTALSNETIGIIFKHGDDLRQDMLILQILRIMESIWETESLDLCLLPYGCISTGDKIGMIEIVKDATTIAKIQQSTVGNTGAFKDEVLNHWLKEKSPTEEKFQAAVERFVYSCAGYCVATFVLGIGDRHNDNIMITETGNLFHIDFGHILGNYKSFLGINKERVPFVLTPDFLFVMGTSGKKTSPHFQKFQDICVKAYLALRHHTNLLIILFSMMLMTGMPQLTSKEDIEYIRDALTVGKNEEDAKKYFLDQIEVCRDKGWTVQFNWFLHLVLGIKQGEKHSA
Chain of PI3Kα (P42336 whole entry, species assumed): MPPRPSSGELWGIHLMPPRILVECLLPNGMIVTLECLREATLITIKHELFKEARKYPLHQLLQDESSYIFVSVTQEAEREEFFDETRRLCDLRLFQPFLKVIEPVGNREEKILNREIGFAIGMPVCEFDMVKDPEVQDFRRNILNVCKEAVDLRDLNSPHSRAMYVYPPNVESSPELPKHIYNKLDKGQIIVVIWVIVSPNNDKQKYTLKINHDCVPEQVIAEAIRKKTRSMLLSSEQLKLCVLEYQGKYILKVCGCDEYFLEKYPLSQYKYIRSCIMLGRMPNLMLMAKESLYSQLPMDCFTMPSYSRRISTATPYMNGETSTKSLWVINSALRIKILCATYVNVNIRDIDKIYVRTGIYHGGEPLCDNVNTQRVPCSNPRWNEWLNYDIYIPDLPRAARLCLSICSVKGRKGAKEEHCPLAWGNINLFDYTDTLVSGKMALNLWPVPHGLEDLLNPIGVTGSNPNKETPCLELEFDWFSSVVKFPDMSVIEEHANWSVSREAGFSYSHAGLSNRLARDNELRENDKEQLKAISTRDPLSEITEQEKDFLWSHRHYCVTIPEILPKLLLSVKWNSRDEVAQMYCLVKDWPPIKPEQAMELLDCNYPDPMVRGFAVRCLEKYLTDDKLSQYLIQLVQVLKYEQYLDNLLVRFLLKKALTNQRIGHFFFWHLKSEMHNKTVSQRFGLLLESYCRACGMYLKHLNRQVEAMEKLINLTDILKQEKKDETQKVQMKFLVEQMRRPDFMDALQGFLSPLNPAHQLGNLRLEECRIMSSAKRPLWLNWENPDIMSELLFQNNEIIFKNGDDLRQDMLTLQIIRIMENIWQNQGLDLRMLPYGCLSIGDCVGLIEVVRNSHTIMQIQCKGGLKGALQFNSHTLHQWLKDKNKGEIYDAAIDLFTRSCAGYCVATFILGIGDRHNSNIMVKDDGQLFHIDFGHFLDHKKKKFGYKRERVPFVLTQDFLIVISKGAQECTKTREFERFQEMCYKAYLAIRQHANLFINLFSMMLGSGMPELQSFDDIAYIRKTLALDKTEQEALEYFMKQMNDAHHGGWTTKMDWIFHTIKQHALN
Chain of PI3Kα (P27986 whole entry partner, species assumed): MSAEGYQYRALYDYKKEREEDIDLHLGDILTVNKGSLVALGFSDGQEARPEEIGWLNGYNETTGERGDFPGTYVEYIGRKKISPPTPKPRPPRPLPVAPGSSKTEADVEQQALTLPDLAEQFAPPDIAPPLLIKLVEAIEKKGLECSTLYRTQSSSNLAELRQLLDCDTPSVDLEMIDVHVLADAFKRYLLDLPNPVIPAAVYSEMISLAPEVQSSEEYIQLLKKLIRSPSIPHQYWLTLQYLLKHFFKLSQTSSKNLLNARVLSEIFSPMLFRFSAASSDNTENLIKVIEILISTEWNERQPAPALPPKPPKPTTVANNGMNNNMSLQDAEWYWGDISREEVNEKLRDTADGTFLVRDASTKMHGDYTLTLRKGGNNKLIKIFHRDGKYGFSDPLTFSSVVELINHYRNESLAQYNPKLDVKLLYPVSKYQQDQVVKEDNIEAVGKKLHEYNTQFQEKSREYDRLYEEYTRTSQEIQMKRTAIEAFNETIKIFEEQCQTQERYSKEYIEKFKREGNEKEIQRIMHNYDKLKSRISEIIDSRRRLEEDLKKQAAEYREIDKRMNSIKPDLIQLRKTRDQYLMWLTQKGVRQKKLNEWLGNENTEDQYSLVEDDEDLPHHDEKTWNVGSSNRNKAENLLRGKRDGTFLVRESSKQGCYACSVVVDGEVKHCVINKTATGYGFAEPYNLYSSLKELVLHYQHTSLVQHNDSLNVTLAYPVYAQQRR
Chain of PI3Kβ (P42338 whole entry, species assumed): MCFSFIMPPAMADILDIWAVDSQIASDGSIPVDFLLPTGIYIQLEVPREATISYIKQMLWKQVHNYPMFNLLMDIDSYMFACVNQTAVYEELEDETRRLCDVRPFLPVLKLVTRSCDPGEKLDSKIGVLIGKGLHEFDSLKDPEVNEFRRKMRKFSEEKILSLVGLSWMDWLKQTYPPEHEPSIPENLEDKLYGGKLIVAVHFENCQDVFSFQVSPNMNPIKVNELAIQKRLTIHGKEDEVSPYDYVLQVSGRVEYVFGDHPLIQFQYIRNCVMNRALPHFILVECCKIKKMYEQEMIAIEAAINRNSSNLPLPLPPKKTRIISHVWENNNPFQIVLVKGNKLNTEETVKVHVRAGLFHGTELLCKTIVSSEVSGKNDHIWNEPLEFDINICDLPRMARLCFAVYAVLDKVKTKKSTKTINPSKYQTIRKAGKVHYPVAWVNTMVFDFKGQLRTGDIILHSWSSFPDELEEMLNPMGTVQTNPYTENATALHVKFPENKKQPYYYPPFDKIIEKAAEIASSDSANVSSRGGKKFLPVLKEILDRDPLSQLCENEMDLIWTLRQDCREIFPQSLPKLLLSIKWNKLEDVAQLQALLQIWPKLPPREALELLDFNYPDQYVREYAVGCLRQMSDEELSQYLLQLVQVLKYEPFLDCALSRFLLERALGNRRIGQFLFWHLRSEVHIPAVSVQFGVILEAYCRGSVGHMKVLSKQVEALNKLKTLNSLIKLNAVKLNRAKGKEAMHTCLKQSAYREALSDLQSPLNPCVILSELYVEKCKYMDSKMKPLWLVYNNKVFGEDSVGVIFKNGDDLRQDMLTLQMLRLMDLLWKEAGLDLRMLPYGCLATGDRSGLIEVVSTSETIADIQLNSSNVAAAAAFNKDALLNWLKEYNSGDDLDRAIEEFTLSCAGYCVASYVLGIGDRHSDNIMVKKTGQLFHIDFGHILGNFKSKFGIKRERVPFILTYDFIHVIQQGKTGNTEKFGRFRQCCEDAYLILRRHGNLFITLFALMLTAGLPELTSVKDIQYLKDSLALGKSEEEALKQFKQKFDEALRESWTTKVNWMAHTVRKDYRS
Chain of PI3Kβ (P27986 whole entry partner, species assumed): as the sequence (P27986 whole entry partner, species assumed) above

## COc1ncc(-c2ccc3nccc(-c4ccc(CN(C)C)cc4)c3c2)cc1NS(=O)(=O)c1ccc(F)cc1F [Compound 9, N-(5-(4-(4-((dimethylamine)methyl)phenyl)quinolin-6-yl)-2-methoxypyridine-3-yl)-2,4-difluorobenzenesulfonamide]
[1]
  solubility at 20 min: 33.3 mg/mL (≈ 59.4 mM)
[2]
  IC50: 1.8 nM
[3]; [10]
  AUC: 3740 ng·h/mL
  Cmax: 999 ng/mL
  MRT: 8.54 h
  Vd: 5.05 L/kg
  clearance: 8.92 mL/min/kg
  AUC(0-t): 3450 ng·h/mL
[3]; [11]
  AUC: 35600 ng·h/mL
  Cmax: 7120 ng/mL
  MRT: 6.46 h
  Tmax: 0.5 h
  AUC(0-t): 34100 ng·h/mL
[3]; male, SD, iv, 2 mg/kg, rat plasma, tail vein injection
  half-life: 6.55 h
[3]; male, SD, 20 mg/kg, read-out: Absolute bioavailability F0-t
  bioavailability: 98.8%
[3]; male, SD, 20 mg/kg, read-out: Absolute bioavailability F0-∞
  bioavailability: 95.2%
[3]; male, SD, po, 20 mg/kg, rat plasma, intragastric administration
  half-life: 4.4 h
[3]; [12]
  AUMC: 230.2 μg/mL · h
  AUMC(0-24): 183.0 μg/mL · h
  k: 0.1573 h⁻¹
  t1/2: 4.406 h
[3]; [13]
  AUMC: 31.95 μg/mL · h
  AUMC(0-24): 22.23 μg/mL · h
  k: 0.1063 h⁻¹
[4]
  GI50: < 10 nM
[5]
  GI50: < 10 nM
[6]
  IC50: 1.3 nM
[7]
  GI50: 17 nM
[8]
  IC50: 3.8 nM
[9]
  IC50: 1.5 nM
